Experimental data published in US20220153746A1, “NITROGEN OXIDE-DONATING PDE-5 AND/OR PDE-6 INHIBITOR COMPOUNDS, AND USES THEREOF” (ILDONG PHARMACEUTICAL CO., LTD., priority 2020, published 2022).
Read-outs that look alike come from different tables or passages of the source.

Experiment: PK Phase (Group 2): plasma concentrations and pharmacokinetics of Compound 18 and its metabolite Compound 4 after once daily ocular instillation of Compound 18 nanosuspension for 7 days
Format: in vivo, New Zealand white rabbits
Conditions: male, New Zealand white, rabbit, plasma; for concentration at 8 h / concentration at 24 h: 0.821 mg/kg/day; for Cmax / Tmax / AUC(0-t): topical or ocular, 0.8 mg/kg; for AUC(0-t): read-out: AUC0-24
From the text: This example illustrates the procedures and results for the levels of Compound 18 and its metabolite Compound 4 in plasma and ocular tissues of normotensive rabbits following ocular instillation of Compound 18 once daily for 7 consecutive days.
Twenty five (25) male New Zealand white rabbits were divided into 5 groups of varying amounts of animals per group.
The Test article, Compound 18 was formulated as a 2% nanosuspension in DI water containing 0.2% PS80 (polyoxyethylenesorbitan, monooleate (Tween 80)) and 0.4% HPMC (hydroxypropylmethylcellulose) at pH 6.77. Referred to herein as “Compound 18 nanosuspension.”
The study consisted of three groups (Groups 1-3) of 19 male rabbits (NZW) that underwent once daily morning ocular installation (1 eyedrop) for 7 consecutive days (Day 0-6). Groups 4-5 each consisted of 3 male rabbits (NZW) that were not dosed.
Blood samples (1 mL) were collected from the jugular vein at the intervals set out below for each group. The samples were then inverted several times following collection and held on wet ice until centrifuged. Samples were centrifuged within 60 minutes of collection under refrigeration (set at 5° C. for 10 minutes at 2000 g. […]
Plasma and tissue samples from treated animals (Groups 1-3) were analyzed for Compound 18 and its metabolite Compound 4 concentrations by LC-MS/MS.
Pharmacokinetic analysis was conducted using WinNonlin Version 6.2.1 (Pharsight, Mountain View, Calif.), operating as a validated software system. Noncompartmental analysis was conducted using the extravascular administration model for ocular instillation dosing.
The peak plasma concentration, time to achieve peak plasma concentration, half-life, and area under the plasma concentration-time curve (Cmax, Tmax, T1/2, and AUC) were calculated from the PK phase individual animal plasma concentrations for each sampling time/dose group for Compound 18 and its metabolite Compound 4.
BA Assay: Quantitation Range 0.05 to 100 ng/mL for Compound 18, 0.15 to 100 ng/mL for Compound 4.
Plasma calibration standards (PLSTD-A) with Compound 18 concentrations ranging from 0.0500 to 100 ng/mL were prepared by spiking control rabbit plasma with appropriate calibration curve spiking solutions (SS-A). PLQC-A samples with concentrations of 0.150, 5.00, 50.0, and 80.0 ng/mL were prepared by spiking control rabbit plasma with appropriate SS-A-QC spiking solutions.
Plasma calibration standards (PLSTD-B) with Compound 4 concentrations ranging from 0.150 to 100 ng/mL were prepared by spiking control rabbit plasma with appropriate calibration curve spiking solutions (SS-B). PLQC-B samples with concentrations of 0.450, 5.00, 50.0, and 80.0 ng/mL were prepared by spiking control rabbit plasma with appropriate SS-B-QC spiking solutions. PLQC-B-Dil samples at 800 ng/mL were prepared by spiking control rabbit plasma with the SS-B-QC-Dil spiking solution at 16,000 ng/mL, and then diluted 20× with control rabbit plasma prior to extraction.
1. Thaw plasma standards, plasma QC samples, ocular tissue QC samples, incurred plasma samples and ocular tissue samples (AH/VH) (if applicable) on wet ice. Control plasma can be thawed in tepid water. Vortex before taking aliquots.
2. Pipet 50 μL of water for Reagent Blank, 50 μL of control plasma for Double Blank and Blank, 50 μL of pre-spiked plasma for Standards and QC samples, 50 μL of incurred plasma samples (if applicable) into a 96 well plate.
5. Add 200 μL of working internal standard (WIS) solution to all remaining samples.
6. Seal the plate and vortex for approximately 5 minutes. Centrifuge the plate at 3500 rpm for 10 minutes at ˜4° C.
7. Transfer ˜200 μL of each sample supernatant into the appropriate wells of a 96 well plate. Submit for LC MS/MS analysis.
A total of 25 rabbits were used for this study, including 19 treated rabbits and 6 control rabbits. […]

[1] = other: ocular instillation (eye drop), Mean of 4 animals, BQL set to 0, read-out: Day 7 Compound 18 Plasma Concentration
[2] = other: ocular instillation (eye drop), animal 207666, read-out: Day 7 Compound 18 Plasma Concentration
[3] = other: ocular instillation, 0.8 mg/kg/day, Mean of 4 animals, BQL set to 0, read-out: Day 1 Compound 18 Plasma Concentration
[4] = other: ocular instillation, 0.8 mg/kg/day, animal 207666, read-out: Day 1 Compound 18 Plasma Concentration
[5] = other: ocular instillation, 0.8 mg/kg/day, animal 207667, read-out: Day 1 Compound 18 Plasma Concentration
[6] = Day 1, Compound 18 0.8 mg/kg ocular instillation, Mean, n=4
[7] = Day 1, Compound 18 0.8 mg/kg ocular instillation, animal 207664
[8] = Day 1, Compound 18 0.8 mg/kg ocular instillation, animal 207665
[9] = Day 1, Compound 18 0.8 mg/kg ocular instillation, animal 207666
[10] = Day 1, Compound 18 0.8 mg/kg ocular instillation, animal 207667
[11] = Day 7, Compound 18 0.8 mg/kg ocular instillation, Mean, n=4
[12] = Day 7, Compound 18 0.8 mg/kg ocular instillation, animal 207664
[13] = Day 7, Compound 18 0.8 mg/kg ocular instillation, animal 207665
[14] = Day 7, Compound 18 0.8 mg/kg ocular instillation, animal 207666
[15] = Day 7, Compound 18 0.8 mg/kg ocular instillation, animal 207667

CCCc1nn(C)c2c(=O)[nH]c(-c3cc(S(=O)(=O)N4CC(CCCO[N+](=O)[O-])C4)ccc3OCC)nc12 [Compound 18, 3-(1-((4-ethoxy-3-(1-methyl-7-oxo-3-propyl-6,7-dihydro-1H-pyrazolo[4,3-d]pyrimidin-5-yl)phenyl)sulfonyl)azetidin-3-yl)propyl nitrate]
concentration at 8 h [1]: 0.0279 ng/mL | concentration at 8 h (other: ocular instillation (eye drop), animal 207665, read-out: Day 7 Compound 18 Plasma Concentration): 0.0505 ng/mL | concentration at 8 h [2]: 0.0611 ng/mL | concentration at 24 h (other: ocular instillation (eye drop), Mean of 4 animals, BQL set to 0, read-out: Day 1 Compound 18 Plasma Concentration): 0.0171 ng/mL | concentration at 24 h [1]: 0.0401 ng/mL | concentration at 24 h (other: ocular instillation (eye drop), animal 207666, read-out: Day 1 Compound 18 Plasma Concentration): 0.0682 ng/mL | concentration at 24 h [2]: 0.0989 ng/mL | concentration at 24 h (other: ocular instillation (eye drop), animal 207667, read-out: Day 7 Compound 18 Plasma Concentration): 0.0614 ng/mL | concentration at 0.5 h (other: ocular instillation (eye drop), 2 mg/day, animal 207664, read-out: Day 1 Compound 18 Plasma Concentration): 0.0863 ng/mL | concentration at 0.5 h [3]: 0.161 ng/mL | concentration at 0.5 h (other: ocular instillation, 0.8 mg/kg/day, animal 207665, read-out: Day 1 Compound 18 Plasma Concentration): 0.0721 ng/mL | concentration at 0.5 h [4]: 0.313 ng/mL | concentration at 0.5 h [5]: 0.171 ng/mL | concentration at 1 h [3]: 0.0601 ng/mL | concentration at 1 h [4]: 0.183 ng/mL | concentration at 1 h [5]: 0.0575 ng/mL | Cmax [6]: 0.161 ± 0.111 ng/mL | Tmax [6]: 30 min | AUC(0-t) [6]: 0.311 ± 0.488 ng·h/mL | Cmax [7]: 0.0863 ng/mL | Tmax [7]: 30 min | AUC(0-t) [7]: 0.0216 ng·h/mL | Cmax [8]: 0.0721 ng/mL | Tmax [8]: 30 min | AUC(0-t) [8]: 0.018 ng·h/mL | Cmax [9]: 0.313 ng/mL | Tmax [9]: 30 min | AUC(0-t) [9]: 1.04 ng·h/mL | Cmax [10]: 0.171 ng/mL | Tmax [10]: 30 min | AUC(0-t) [10]: 0.17 ng·h/mL | Cmax [11]: 0.17 ± 0.105 ng/mL | Tmax [11]: 156 ± 216 min | AUC(0-t) [11]: 0.754 ± 0.794 ng·h/mL | Cmax [12]: 0.306 ng/mL | Tmax [12]: 60 min | AUC(0-t) [12]: 0.372 ng·h/mL | Cmax [13]: 0.0505 ng/mL | Tmax [13]: 480 min | AUC(0-t) [13]: 0.101 ng·h/mL | Cmax [14]: 0.163 ng/mL | Tmax [14]: 30 min | AUC(0-t) [14]: 1.9 ng·h/mL | Cmax [15]: 0.161 ng/mL | Tmax [15]: 60 min | AUC(0-t) [15]: 0.644 ng·h/mL
